Experimental data reported in the supplement of paper PMC10627819.

Columns and labels:
Assay in all cases: Bliss interaction score (quartile over a dose matrix) (fitness difference); higher = more antagonism (negative = synergy)
[1] = system: S. pneumoniae D39V
Summary of the method: (§1)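 The Bliss score subtracts expected fitness, the product of the single-drug fitness values, from observed fitness. Fitness is plate-normalised OD595 at entry into stationary phase, relative to the robust no-drug mean and capped at 1, with single-drug fitness inferred from combinations. Summaries are quartiles over technical, biological and donor/recipient replicates.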

[2] = system: S. aureus Newman
Summary of the method: as §1

[3] = system: B. subtilis 168
Summary of the method: as §1

[4] = system: S. aureus DSM 20231
Summary of the method: as §1
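Further: first quartile when negative (synergy) and third quartile when positive (antagonism).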

Row | Structure (SMILES) | Bliss interaction score [1] | Bliss interaction score [2] | Bliss interaction score [3] | Bliss interaction score [4] | Bliss interaction score ([1]; main component drawn) | Bliss interaction score ([2]; main component drawn) | Bliss interaction score ([3]; main component drawn) | Bliss interaction score ([4]; main component drawn)
1 | CC(=O)NC[C@H]1CN(c2ccc(N3CCOCC3)c(F)c2)C(=O)O1 [Linezolid] + CC[C@H]1OC(=O)[C@H](C)C(=O)[C@H](C)[C@@H](O[C@@H]2O[C@H](C)C[C@H](N(C)C)[C@H]2O)[C@](C)(OC)C[C@@H](C)C(=O)[C@H](C)[C@H]2N(CCCCn3cnc(-c4cccnc4)c3)C(=O)O[C@]12C [Telithromycin] | -0.0921 | -0.074 | -0.143 | -0.133 | – | – | – | –
2 | CC[C@H]1OC(=O)[C@H](C)[C@@H](O[C@H]2C[C@@](C)(OC)[C@@H](O)[C@H](C)O2)[C@H](C)[C@@H](O[C@@H]2O[C@H](C)C[C@H](N(C)C)[C@H]2O)[C@](C)(O)C[C@@H](C)C(=O)[C@H](C)[C@@H](O)[C@]1(C)O [Erythromycin] + CN1C2=CC=CC=C2N=C3C1=CC=CC3=O [Pyocyanin] | -0.0454 | -0.051 | 0.0449 | -0.0317 | – | – | – | –
3 | CC[C@H]1OC(=O)[C@H](C)[C@@H](O[C@H]2C[C@@](C)(OC)[C@@H](O)[C@H](C)O2)[C@H](C)[C@@H](O[C@@H]2O[C@H](C)C[C@H](N(C)C)[C@H]2O)[C@](C)(O)C[C@@H](C)C(=O)[C@H](C)[C@@H](O)[C@]1(C)O [Erythromycin] + COc1c(N2C[C@@H]3CCCN[C@@H]3C2)c(F)cc2c(=O)c(C(=O)O)cn(C3CC3)c12 [Moxifloxacin] | 0.101 | 0.0486 | 0.0269 | 0.0532 | – | – | – | –
4 | CC[C@H]1OC(=O)[C@H](C)[C@@H](O[C@H]2C[C@@](C)(OC)[C@@H](O)[C@H](C)O2)[C@H](C)[C@@H](O[C@@H]2O[C@H](C)C[C@H](N(C)C)[C@H]2O)[C@](C)(O)C[C@@H](C)C(=O)[C@H](C)[C@@H](O)[C@]1(C)O [Erythromycin] + CO[C@@H]1[C@@H](OC(N)=O)[C@@H](O)[C@H](Oc2ccc3c(O)c(NC(=O)c4ccc(O)c(CC=C(C)C)c4)c(=O)oc3c2C)OC1(C)C [Novobiocin] | -0.114 | 0.0699 | -0.0636 | -0.0443 | – | – | – | –
5 | CO[C@@H]1[C@@H](OC(N)=O)[C@@H](O)[C@H](Oc2ccc3c(O)c(NC(=O)c4ccc(O)c(CC=C(C)C)c4)c(=O)oc3c2C)OC1(C)C [Novobiocin] + CO[C@H]1/C=C/O[C@@]2(C)Oc3c(C)c(O)c4c(O)c(c(/C=N/N5CCN(C)CC5)c(O)c4c3C2=O)NC(=O)/C(C)=C\C=C\[C@H](C)[C@H](O)[C@@H](C)[C@@H](O)[C@@H](C)[C@H](OC(C)=O)[C@@H]1C [Rifampicin] | 0.159 | 0.0819 | 0.0681 | 0.0573 | – | – | – | –
6 | CC[C@H](C)[C@H](N)C1=N[C@H](C(=O)N[C@@H](CC(C)C)C(=O)N[C@H](CCC(=O)O)C(=O)N[C@H](C(=O)N[C@H]2CCCCNC(=O)[C@H](CC(N)=O)NC(=O)[C@@H](CC(=O)O)NC(=O)[C@H](Cc3cnc[nH]3)NC(=O)[C@@H](Cc3ccccc3)NC(=O)[C@H]([C@@H](C)CC)NC(=O)[C@@H](CCCN)NC2=O)[C@@H](C)CC)CS1 [Bacitracin] + CO[C@H]1/C=C/O[C@@]2(C)Oc3c(C)c(O)c4c(O)c(c(/C=N/N5CCN(C)CC5)c(O)c4c3C2=O)NC(=O)/C(C)=C\C=C\[C@H](C)[C@H](O)[C@@H](C)[C@@H](O)[C@@H](C)[C@H](OC(C)=O)[C@@H]1C [Rifampicin] | – | – | – | – | 0.104 | -0.0236 | -0.0806 | 0.0174
7 | CO[C@H]1/C=C/O[C@@]2(C)Oc3c(C)c(O)c4c(O)c(c(/C=N/N5CCN(C)CC5)c(O)c4c3C2=O)NC(=O)/C(C)=C\C=C\[C@H](C)[C@H](O)[C@@H](C)[C@@H](O)[C@@H](C)[C@H](OC(C)=O)[C@@H]1C [Rifampicin] + CCCCCCCCCC(=O)N[C@@H]1[C@H]([C@@H]([C@H](O[C@H]1OC2=C3C=C4C=C2OC5=C(C=C(C=C5)[C@H]([C@H]6C(=O)N[C@@H](C7=C(C(=CC(=C7)O)OC8[C@H]([C@H]([C@@H]([C@H](O8)CO)O)O)O)C9=C(C=CC(=C9)[C@H](C(=O)N6)NC(=O)[C@@H]4NC(=O)[C@@H]1C2=CC(=CC(=C2)OC2=C(C=CC(=C2)[C@H](C(=O)N[C@H](CC2=CC(=C(O3)C=C2)Cl)C(=O)N1)N)O)O)O)C(=O)O)O[C@H]1[C@@H]([C@H]([C@@H]([C@H](O1)CO)O)O)NC(=O)C)Cl)CO)O)O [Teicoplanin] | – | – | – | – | 0.0769 | -0.0536 | 0.176 | -0.0357
8 | CC[C@H](C)[C@H](N)C1=N[C@H](C(=O)N[C@@H](CC(C)C)C(=O)N[C@H](CCC(=O)O)C(=O)N[C@H](C(=O)N[C@H]2CCCCNC(=O)[C@H](CC(N)=O)NC(=O)[C@@H](CC(=O)O)NC(=O)[C@H](Cc3cnc[nH]3)NC(=O)[C@@H](Cc3ccccc3)NC(=O)[C@H]([C@@H](C)CC)NC(=O)[C@@H](CCCN)NC2=O)[C@@H](C)CC)CS1 [Bacitracin] + C[C@@H](O)[C@H]1C(=O)N2C(C(=O)O)=C(SCCNC=N)C[C@H]12 [Imipenem] | – | – | – | – | -0.0576 | -0.0113 | -0.359 | 0.0207
